Results taken from patent publication US11866450B2, “Modulators of Cystic Fibrosis Transmembrane Conductance regulator, pharmaceutical compositions, methods of treatment, and process for making the modulators” (priority 2018, dated 2024).

Target: CFTR-mediated chloride transport (Homo sapiens, UniProt P13569)
Type: cell-based
Conditions: enteroid cells incubated with test compound 18-24 hours, acute 10 μM forskolin and 300 nM Compound III; for Max. Activity: % of chloride transport with 3 μM Compound A, 3 μM Compound II and 300 nM acute Compound III triple combination control
Protocol: Base medium (ADF+++) consisted of Advanced DMEM/Ham's F12, 2 mM Glutamax, 10 mM HEPES, […] penicillin/streptomycin.
Intestinal enteroid maintenance medium (IEMM) consisted of ADF+++, 1× B27 supplement, 1× N2 supplement, 1.25 mM N-acetyl cysteine, 10 mM Nicotinamide, 50 ng/mL hEGF, 10 nM Gastrin, 1 μg/mL hR-spondin-1, 100 ng/mL hNoggin, TGF-b type 1 inhibitor A-83-01, 100 μg/mL Primocin, 10 μM P38 MAPK inhibitor SB202190.
Bath 1 Buffer consisted of 1 mM MgCl2, 160 mM NaCl, 4.5 mM KCl, 10 mM HEPES, 10 mM Glucose, 2 mM CaCl2).
Chloride Free Buffer consisted of 1 mM Magnesium Gluconate, 2 mM Calcium Gluconate, 4.5 mM Potassium Gluconate, 160 mM Sodium Gluconate, 10 mM HEPES, 10 mM Glucose.
Bath1 Dye Solution consisted of Bath 1 Buffer, 0.04% Pluronic F127, 20 μM Methyl Oxonol, 30 μM CaCCinh-A01, 30 μM Chicago Sky Blue.
Chloride Free Dye Solution consisted of Chloride Free Buffer, 0.04% Pluronic F127, 20 μM Methyl Oxonol, 30 μM CaCCinh-A01, 30 μM Chicago Sky Blue.
Chloride Free Dye Stimulation Solution consisted of Chloride Free Dye Solution, 10 μM forskolin, 100 μM IBMX, and 300 nM Compound III.
Human intestinal epithelial enteroid cells were obtained from the Hubrecht Institute for Developmental Biology and Stem Cell Research, Utrecht, The Netherlands and expanded in T-Flasks as previously described (Dekkers J F, Wiegerinck C L, de Jonge H R, Bronsveld I, Janssens H M, de Winter-de Groot K M, Brandsma A M, de Jong N W M, Bijvelds M J C, Scholte B J, Nieuwenhuis E E S, van den Brink S, Clevers H, van der Ent C K, Middendorp S and M Beekman J M. A functional CFTR assay using primary cystic fibrosis intestinal organoids. Nat Med. 2013 July; 19(7):939-45).
Cells were recovered in cell recovery solution, collected by centrifugation at 650 rpm for 5 min at 4° C., resuspended in TryPLE and incubated for 5 min at 37° C. Cells were then collected by centrifugation at 650 rpm for 5 min at 4° C. and resuspended in IEMM containing 10 μM ROCK inhibitor (RI) (trans-4-[(1R)-1-aminoethyl]-N-4-pyridinylcyclohexanecarboxamide). The cell suspension was passed through a 40 μm cell strainer and resuspended at 1×10^6 cells/mL in IEMM containing 10 μM RI. Cells were seeded at 5000 cells/well into multi-well plates and incubated for overnight at 37° C., 95% humidity and 5% CO2 prior to assay.
Enteroid cells were incubated with test compound in IEMM for 18-24 hours at 37° C., 95% humidity and 5% CO2. Following compound incubations, a membrane potential dye assay was employed using a FLIPR Tetra to directly measure the potency and efficacy of the test compound on CFTR-mediated chloride transport following acute addition of 10 μM forskolin and 300 nM Compound III. Briefly, cells were washed 5 times in Bath 1 Buffer. Bath 1 Dye Solution was added and the cells were incubated for 25 min at room temperature. Following dye incubation, cells were washed 3 times in Chloride Free Dye Solution. Chloride transport was initiated by addition of Chloride Free Dye Stimulation Solution and the fluorescence signal was read for 15 min. The CFTR-mediated chloride transport for each condition was determined from the AUC of the fluorescence response to acute forskolin and 300 nM Compound III stimulation. Chloride transport was then expressed as a percentage of the chloride transport following treatment with 3 μM Compound A, 3 μM Compound II and 300 nM acute Compound III triple combination control (% Activity).

Chain of CFTR-mediated chloride transport (P13569 whole entry, looked up): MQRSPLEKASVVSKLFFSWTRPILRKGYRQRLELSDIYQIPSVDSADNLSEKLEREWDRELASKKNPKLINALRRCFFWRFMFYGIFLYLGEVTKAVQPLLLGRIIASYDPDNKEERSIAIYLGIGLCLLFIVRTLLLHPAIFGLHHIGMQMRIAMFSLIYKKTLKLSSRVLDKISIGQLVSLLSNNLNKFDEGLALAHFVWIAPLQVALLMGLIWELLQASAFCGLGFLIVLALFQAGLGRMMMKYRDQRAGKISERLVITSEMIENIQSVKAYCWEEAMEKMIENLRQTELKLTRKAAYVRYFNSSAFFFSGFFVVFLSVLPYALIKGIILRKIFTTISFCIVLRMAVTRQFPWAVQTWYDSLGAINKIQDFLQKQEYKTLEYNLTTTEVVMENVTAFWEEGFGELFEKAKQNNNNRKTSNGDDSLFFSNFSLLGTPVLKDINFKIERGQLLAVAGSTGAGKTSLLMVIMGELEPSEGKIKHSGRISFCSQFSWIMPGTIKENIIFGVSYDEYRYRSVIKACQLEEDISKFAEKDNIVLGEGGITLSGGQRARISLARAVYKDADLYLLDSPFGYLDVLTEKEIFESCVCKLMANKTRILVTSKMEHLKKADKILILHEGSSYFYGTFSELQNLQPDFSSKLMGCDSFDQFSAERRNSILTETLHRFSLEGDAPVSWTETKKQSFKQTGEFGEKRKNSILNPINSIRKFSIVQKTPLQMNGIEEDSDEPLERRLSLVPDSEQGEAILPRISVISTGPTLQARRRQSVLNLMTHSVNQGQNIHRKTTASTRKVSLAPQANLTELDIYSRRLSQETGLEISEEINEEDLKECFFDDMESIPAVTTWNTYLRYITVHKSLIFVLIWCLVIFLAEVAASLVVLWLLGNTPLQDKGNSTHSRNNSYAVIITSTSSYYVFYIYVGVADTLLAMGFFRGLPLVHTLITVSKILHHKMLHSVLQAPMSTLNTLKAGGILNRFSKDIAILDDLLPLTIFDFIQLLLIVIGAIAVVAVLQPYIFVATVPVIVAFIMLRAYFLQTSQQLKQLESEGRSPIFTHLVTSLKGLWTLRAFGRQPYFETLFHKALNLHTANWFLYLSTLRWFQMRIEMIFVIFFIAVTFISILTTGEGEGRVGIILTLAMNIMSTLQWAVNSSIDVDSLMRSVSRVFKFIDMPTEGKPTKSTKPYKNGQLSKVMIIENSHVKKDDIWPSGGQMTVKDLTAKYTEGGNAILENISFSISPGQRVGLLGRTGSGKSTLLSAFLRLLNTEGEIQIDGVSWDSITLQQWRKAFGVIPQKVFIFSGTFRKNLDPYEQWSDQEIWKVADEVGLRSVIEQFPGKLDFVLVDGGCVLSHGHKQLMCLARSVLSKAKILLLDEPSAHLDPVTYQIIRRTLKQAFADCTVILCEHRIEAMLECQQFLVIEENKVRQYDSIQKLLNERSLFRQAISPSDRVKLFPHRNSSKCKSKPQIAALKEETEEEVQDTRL

Structure (SMILES) | EC50 [nM] | Max. Activity
CC1(C)C[C@H]2CCCOc3cccc(n3)S(=O)(=O)NC(=O)c3ccc(-n4ccc(OCCC5(C(F)(F)F)CC5)n4)nc3N1C2 (single isomer, unassigned) [Compound 49, 12,12-dimethyl-8-(3-{2-[1-(trifluoromethyl)cyclopropyl]ethoxy}-1H-pyrazol-1-yl)-18-oxa-2λ^6-thia-3,9,11,23-tetraazatetracyclo[17.3.1.111,14.05,10]tetracosa-1(22),5,7,9,19(23),20-hexaene-2,2,4-trione] | < 1000 | +++ (+++ is >60%)
CC1(C)CC[C@H]2CNc3cccc(n3)S(=O)(=O)NC(=O)c3ccc(-n4ccc(OCCC5(C(F)(F)F)CC5)n4)nc3N21 (single isomer, unassigned) [Compound 50, 7,7-dimethyl-11-(3-{2-[1-(trifluoromethyl)cyclopropyl]ethoxy}-1H-pyrazol-1-yl)-17λ^6-thia-2,8,10,16,22-pentaazatetracyclo[16.3.1.04,8.09,14]docosa-1(22),9,11,13,18,20-hexaene-15,17,17-trione] | > 3000 | + (+ is <30%)
CC1(C)CC[C@H]2CNc3cccc(n3)S(=O)(=O)NC(=O)c3ccc(-n4ccc(OCCC5(C(F)(F)F)CC5)n4)nc3N21 (single isomer, unassigned) [Compound 51, 7,7-dimethyl-11-(3-{2-[1-(trifluoromethyl)cyclopropyl]ethoxy}-1H-pyrazol-1-yl)-17λ^6-thia-2,8,10,16,22-pentaazatetracyclo[16.3.1.04,8.09,14]docosa-1(22),9,11,13,18,20-hexaene-15,17,17-trione] | > 3000 | + (+ is <30%)
CC1(C)C[C@H]2CCCCc3ccc(cc3)S(=O)(=O)NC(=O)c3ccc(-n4ccc(OCCC5(C(F)(F)F)CC5)n4)nc3N1C2 (single isomer, unassigned) [Compound 54, 12,12-Dimethyl-8-(3-{2-[1-(trifluoromethyl)cyclopropyl]ethoxy}-1H-pyrazol-1-yl)-2λ^6-thia-3,9,11-triazatetracyclo[17.2.2.111,14.05,10]tetracosa-1(21),5,7,9,19,22-hexaene-2,2,4-trione] | 1000 to 3000 | ++ (++ is 30-60%)
CC1(C)C[C@H]2CCCCc3ccc(cc3)S(=O)(=O)NC(=O)c3ccc(-n4ccc(OCCC5(C(F)(F)F)CC5)n4)nc3N1C2 (single isomer, unassigned) [Compound 55, 12,12-Dimethyl-8-(3-{2-[1-(trifluoromethyl)cyclopropyl]ethoxy}-1H-pyrazol-1-yl)-2λ^6-thia-3,9,11-triazatetracyclo[17.2.2.111,14.05,10]tetracosa-1(21),5,7,9,19,22-hexaene-2,2,4-trione] | < 1000 | +++ (+++ is >60%)
CC1(C)C[C@H]2CCCCc3cccc(c3)S(=O)(=O)NC(=O)c3ccc(-n4ccc(OCCC5(C(F)(F)F)CC5)n4)nc3N1C2 (single isomer, unassigned) [Compound 56, 12,12-dimethyl-8-(3-{2-[1-(trifluoromethyl)cyclopropyl]ethoxy}-1H-pyrazol-1-yl)-2λ^6-thia-3,9,11-triazatetracyclo[17.3.1.111,14.05,10]tetracosa-1(22),5,7,9,19(23),20-hexaene-2,2,4-trione] | < 1000 | + (+ is <30%)
CC1(C)C[C@H]2CCCCc3cccc(c3)S(=O)(=O)NC(=O)c3ccc(-n4ccc(OCCC5(C(F)(F)F)CC5)n4)nc3N1C2 (single isomer, unassigned) [Compound 57, 12,12-dimethyl-8-(3-{2-[1-(trifluoromethyl)cyclopropyl]ethoxy}-1H-pyrazol-1-yl)-2λ^6-thia-3,9,11-triazatetracyclo[17.3.1.111,14.05,10]tetracosa-1(22),5,7,9,19(23),20-hexaene-2,2,4-trione] | < 1000 | ++ (++ is 30-60%)
C[C@@H]1CC[C@H]2CN(c3nc(-n4ccc(OCCC5(C(F)(F)F)CC5)n4)ccc3C(=O)NS(=O)(=O)c3cccc(n3)N1)C(C)(C)C2 (single isomer, unassigned) [Compound 58, 12,12,17-trimethyl-8-(3-{2-[1-(trifluoromethyl)cyclopropyl]ethoxy}-1H-pyrazol-1-yl)-2λ^6-thia-3,9,11,18,23-pentaazatetracyclo[17.3.1.111,14.05,10]tetracosa-1(23),5(10),6,8,19,21-hexaene-2,2,4-trione] | < 1000 | + (+ is <30%)
C[C@@H]1CC[C@H]2CN(c3nc(-n4ccc(OCCC5(C(F)(F)F)CC5)n4)ccc3C(=O)NS(=O)(=O)c3cccc(n3)N1)C(C)(C)C2 (single isomer, unassigned) [Compound 59, 12,12,17-trimethyl-8-(3-{2-[1-(trifluoromethyl)cyclopropyl]ethoxy}-1H-pyrazol-1-yl)-2λ^6-thia-3,9,11,18,23-pentaazatetracyclo[17.3.1.111,14.05,10]tetracosa-1(23),5(10),6,8,19,21-hexaene-2,2,4-trione] | < 1000 | +++ (+++ is >60%)
C[C@@H]1CC[C@H]2CN(c3nc(-n4ccc(OCCC5(C(F)(F)F)CC5)n4)ccc3C(=O)NS(=O)(=O)c3cccc(n3)N1)C(C)(C)C2 (single isomer, unassigned) [Compound 60, 12,12,17-trimethyl-8-(3-{2-[1-(trifluoromethyl)cyclopropyl]ethoxy}-1H-pyrazol-1-yl)-2λ^6-thia-3,9,11,18,23-pentaazatetracyclo[17.3.1.111,14.05,10]tetracosa-1(23),5(10),6,8,19,21-hexaene-2,2,4-trione] | < 1000 | +++ (+++ is >60%)
C[C@@H]1CC[C@H]2CN(c3nc(-n4ccc(OCCC5(C(F)(F)F)CC5)n4)ccc3C(=O)NS(=O)(=O)c3cccc(n3)N1)C(C)(C)C2 (single isomer, unassigned) [Compound 61, 12,12,17-trimethyl-8-(3-{2-[1-(trifluoromethyl)cyclopropyl]ethoxy}-1H-pyrazol-1-yl)-2λ^6-thia-3,9,11,18,23-pentaazatetracyclo[17.3.1.111,14.05,10]tetracosa-1(23),5(10),6,8,19,21-hexaene-2,2,4-trione] | < 1000 | +++ (+++ is >60%)
CC1(C)C[C@H]2CCCCCNc3cccc(n3)S(=O)(=O)NC(=O)c3ccc(-n4ccc(OCCC5(C(F)(F)F)CC5)n4)nc3N1C2 (single isomer, unassigned) [Compound 63, 12,12-dimethyl-8-(3-{2-[1-(trifluoromethyl)cyclopropyl]ethoxy}-1H-pyrazol-1-yl)-2λ^6-thia-3,9,11,20,25-pentaazatetracyclo[19.3.1.111,14.05,10]hexacosa-1(24),5,7,9,21(25),22-hexaene-2,2,4-trione] | < 1000 | +++ (+++ is >60%)
CC1(C)C[C@H]2CCCCCNc3cccc(n3)S(=O)(=O)NC(=O)c3ccc(-n4ccc(OCCC5(C(F)(F)F)CC5)n4)nc3N1C2 (single isomer, unassigned) [Compound 64, 12,12-dimethyl-8-(3-{2-[1-(trifluoromethyl)cyclopropyl]ethoxy}-1H-pyrazol-1-yl)-2λ^6-thia-3,9,11,20,25-pentaazatetracyclo[19.3.1.111,14.05,10]hexacosa-1(24),5,7,9,21(25),22-hexaene-2,2,4-trione] | < 1000 | ++ (++ is 30-60%)
